The assay concerns PAM 212 keratinocytes. In words: PAM 212 keratinocyte growth inhibition assay (photobiological activity; Toxicity, Table I). In kind it is cell-based. As to conditions: Mus musculus, PAM212, light or radiation study. An excerpt:
Psoriasis, mycosis fungolides, eczema, scleroderma, cancer, and similar proliferative diseases are often characterized by abnormal cell growth regulation. Application of PUVA therapy to correct proliferative disorders on the skin or internally, especially psoriasis, is one clinical expression of photochemotherapy. The use of the assay described in Example 16 is based on the observation that phototherapeutics are extremely potent inhibitors of growth factor binding in mammalian cells including humans and this inhibition arrests the proliferative disorder. This assay was performed in the cell culture laboratory. For a discussion of cell growth assays see, e.g:, J. Laskin et al., Cancer Research, vol. 39, pp. 383-390 (1979) and E. Yurkow and J. Laskin, Cancer Chemotherapy and Pharmacology, vol. 27, pp. 315-319, (1991). Inhibition of cell growth is dependent on dose ol the phototherapeutic and on the quanta of light in the 320-400 nm wavelength (ultraviolet light A). It is also structure-dependent, that is, there is a direct correlation between those specific phototherapeutics currently used that are clinically active and their ability to inhibit the growth of the cells.
Representative examples of the compounds described and claimed herein were tested in this assay for biological activity and found to be potent inhibitors of cell growth. Inhibition of cell growth was rapid, dependent on concentration, and required light activation. […] A description of this assay follows.
The photobiological activity was assayed using a keratinocyte cell line grown in a monolayer culture. In this assay, PAM 212 keratinocytes were grown in Dulbecco's Modified Eagle's medium supplemented with 10% newborn calf serum in a 5% carbon dioxide incubator. Cells were inoculated into 6-well Falcon plastic culture dishes at 25,000 cells per well. After 24 hours, the medium was charged to fresh growth medium supplemented with increasing concentrations of the test compounds or the control medium. Controls and test concentrations were analyzed in triplicate.
These plates were then incubated in a 37° C. carbon dioxide incubator. […] The incident light on the culture plates was 2.4 mW/cm^2 as measured with an International Light UV radiometer, Model IL 442A. […]
After completion of the irradiation phase, the cell culture medium was drained, the cells refed with fresh growth medium and then re-incubated in the carbon dioxide incubator to allow for cell growth. After 4-5 days of growth the culture plates were removed from the incubator and the cell culture medium was drained. The cells were detached from the plates with trypsin and counted in a Coulter Counter. For control cells or for cells treated with test compounds, cell growth was determined as a percentage of control. […] This value is shown in Table I for a variety of phototherapeutics.

Setting [1] is: dark (no UVA light), read-out: Dark-toxicity (IC50 values).
[2] abbreviates: with UVA (320-400 nm) 1.28 J/square centimeter after 30 minutes incubation, 4-5 days of growth, read-out: Photo-toxicity (IC50 values), concentration at which photoactivated test compound inhibited growth by 50%.

The structures appear in SMILES notation. Where a name gives a salt, the structure may show the parent alone. Read-outs that look alike come from different tables or passages of the source.

For `Cc1cc(=O)oc2c(C)c3c(cc12)C(CI)CO3` (stereo not shown) [Example 5, 4,8-Dimethyl-4'-iodomethyl-4',5'-dihydropsoralen], the IC50 by setting is: under setting [1], over 100 µM; under setting [2], 0.1 µM. In the case of `Cc1cc(=O)oc2c(C)c(O)c([N+](=O)[O-])cc12` [Example 1, 6-Nitro-4,8-dimethyl-7-hydroxycoumarin], under setting [2], the IC50 is over 300 µM. For `C=CCOc1c(N)cc2c(C)cc(=O)oc2c1C` [Example 3, 6-Amino-4.8-dimethyl-7-allyloxycoumarin], the IC50 under setting [1] was over 100 µM and the IC50 under setting [2] was found to be 240 µM. Regarding `Cc1cc(=O)oc2c(C)c3c(cc12)C(C[n+]1ccccc1)CO3` (stereo not shown) [Example 9, 4,8-Dimethyl-4'-pyridiniummethyl-4',5'-dihydropsoralen Iodide Salt], under setting [2], the IC50 stood at 0.5 µM.

Take `Cc1cc(=O)oc2c(C)c3c(cc12)C(CC#N)CO3` (stereo not shown) [Example 15, 4,8-Dimethyl-4'-cyanomethyl-4',5'-dihydropsoralen]: the IC50 is, setting by setting: under setting [1], over 100 µM; under setting [2], 3 µM. For the compound `C=CCOc1c([N+](=O)[O-])cc2c(C)cc(=O)oc2c1C` [Example 2, 6-Nitro-4,8-dimethyl-7-allyloxycoumarin], the IC50 under setting [1] was over 100 µM and the IC50 under setting [2] was found to be 5 µM. In the case of `Cc1c(Br)c(=O)oc2c(C)c3c(cc12)C(C[n+]1ccccc1)CO3` (stereo not shown) [Example 12, 3-Bromo-4,8-dimethyl-4'-pyridiniummethyl-4',5'-dihydropsoralen Iodide Salt], the IC50 is, setting by setting: under setting [1], 70 µM; under setting [2], over 30 µM.

On to `Cc1c(Br)c(=O)oc2c(C)c3c(cc12)C(CI)CO3` (stereo not shown) [Example 6, 3-Bromo-4,8-dimethyl-4'-iodomethyl-4',5'-dihydropsoralen], for which, under setting [2], the IC50 is 0.2 to 0.5 µM.

Source of the values: patent publication US6177424A, “4'-Substituted-4',5'-dihydropsoralens and therapeutical uses thereof” (priority 1999, dated 2001).
